This passage reports IC50 results from patent US11098032B2, “Pyran dervatives as CYP11A1 (cytochrome P450 monooxygenase 11A1) inhibitors” (ORION CORPORATION, priority 2016, dated 2021).

Structures can show the parent of a compound that is named as a salt.

In the assay the target is T1, CYP11A1 (Homo sapiens, UniProt P05108).
T1 construct: human H295R adrenocortical carcinoma cell line was used as source of enzyme; endogenous in cells; host or cells: H295R human adrenocortical carcinoma cells
T1 sequence (P05108 40-521): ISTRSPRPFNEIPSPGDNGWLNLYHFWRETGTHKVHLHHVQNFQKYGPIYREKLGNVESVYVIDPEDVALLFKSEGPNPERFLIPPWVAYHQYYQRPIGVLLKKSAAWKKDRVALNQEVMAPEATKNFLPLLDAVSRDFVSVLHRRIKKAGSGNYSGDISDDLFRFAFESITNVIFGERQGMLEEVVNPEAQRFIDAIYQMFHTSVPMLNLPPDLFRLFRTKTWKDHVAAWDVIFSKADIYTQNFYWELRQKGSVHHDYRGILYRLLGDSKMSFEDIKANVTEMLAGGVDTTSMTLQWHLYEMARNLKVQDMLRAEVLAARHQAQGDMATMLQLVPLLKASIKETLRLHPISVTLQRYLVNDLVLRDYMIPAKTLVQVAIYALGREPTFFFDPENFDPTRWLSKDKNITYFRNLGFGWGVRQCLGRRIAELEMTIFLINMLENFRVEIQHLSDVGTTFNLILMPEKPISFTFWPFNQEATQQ
As to the kind of experiment: CYP11A1 inhibition: modified isocaproic acid release assay (IARA) in H295R cells. Format: cell-based. To be noted: human H295R adrenocortical carcinoma cells treated three days, 3 nM [24,25-3H]-labelled cholesterol, 1% DMSO, 10 concentrations in duplicates; read-out: IC50 of the test compounds on CYP11A1 inhibition. As to the method:
The ability of the test compounds to inhibit conversion of cholesterole to pregnenolone and isocaproic acid was measured by modification of isocaproic acid release assay (IARA) described by Ruangwises et. al. (Biology of Reproduction 1991; 45(1):143-50) except that human H295R adrenocortical carcinoma cell line was used as source of enzyme and extraction was done with dextran-coated charcoal suspension (Isomaa, V. et al., Endocrinology 1982; 111(3):833-843). […] To determine the half maximal inhibitory concentration (IC50) of the test compounds on CYP11A1 inhibition, the cells were treated for three days with increasing concentrations of the test compounds in the presence of 3 nM [24,25-3H]-labelled cholesterol (American Radiolabelled Chemicals). The final DMSO concentration was 1%. Cell culture medium was extracted with dextran-coated charcoal suspension and the radiolabelled isocaproic acid was determined by mixing 100 μl of supernatant fraction in 200 μl of scintillation fluid (OptiPhase SuperMix, Perkin Elmer). Radioactivity was measured using a Microbeta scintillation counter (1450 MicroBeta Trilux, Wallac). All the test compounds were studied at 10 concentrations in duplicates.
As usually defined, the IC50 is the midpoint of a concentration-inhibition curve. For `CS(C)(=O)=NC(=O)c1ccc(COc2coc(CN3Cc4ccccc4C3)cc2=O)cc1` [Compound 83, 4-({[6-(1,3-Dihydro-2H-isoindol-2-ylmethyl)-4-oxo-4H-pyran-3-yl]oxy}methyl)-N-[dimethyl(oxido)-λ^6-sulfanylidene]benzamide], the IC50 is < 150 nM.

As to `O=C(c1ccc(COc2coc(CN3Cc4ccc(F)cc4C3)cc2=O)cc1)N1CC(F)(F)C1` [Compound 161, 5-((4-(3,3-Difluoroazetidine-1-carbonyl)benzyl)oxy)-2-((5-fluoroisoindolin-2-yl)methyl)-4H-pyran-4-one], the IC50 was in the range of 150 to 300 nM.

For `CNC(=O)N1CCC(COc2coc(CN3Cc4ccccc4C3)cc2=O)CC1` [Compound 228, 4-(((6-(Isoindolin-2-ylmethyl)-4-oxo-4H-pyran-3-yl)oxy)methyl)-N-methyl-piperidine-1-carboxamide], the half-inhibitory concentration (IC50) was in the range of 150 to 300 nM.

With `CS(=O)(=O)c1ccc(COc2coc(CN3Cc4cccc(F)c4C3)cc2=O)cc1` [Compound 27, 2-((4-Fluoroisoindolin-2-yl)methyl)-5-((4-(methylsulfonyl)benzyl)oxy)-4H-pyran-4-one], the IC50 fell in the range of 301 to 2000 nM.

`CS(=O)(=O)N1CCC(COc2coc(CN3Cc4ccc(C#N)cc4C3)cc2=O)CC1` [Compound 245a, 2-((5-((1-(methylsulfonyl)piperidin-4-yl)methoxy)-4-oxo-4H-pyran-2-yl)methyl)-isoindoline-5-carbonitrile]: the IC50 was in the range of 301 to 2000 nM.

Regarding `N#CCS(=O)(=O)N1CCC(COc2coc(CN3Cc4ccccc4C3)cc2=O)CC1` [Compound 254, 2-((4-(((6-(Isoindolin-2-ylmethyl)-4-oxo-4H-pyran-3-yl)oxy)methyl)piperidin-1-yl)sulfonyl)acetonitrile], the IC50 is < 150 nM.

Regarding `CN(C)C(=O)c1c(F)cc(COc2coc(CN3Cc4ccccc4C3)cc2=O)cc1F` [Compound 174, 2,6-Difluoro-4-(((6-(isoindolin-2-ylmethyl)-4-oxo-4H-pyran-3-yl)oxy)methyl)-N,N-dimethylbenzamide], the IC50 fell in the range of 150 to 300 nM.

As for `C=Cc1ccc(COc2coc(CN3Cc4ccccc4C3)cc2=O)cc1` [Compound 144, 2-(Isoindolin-2-ylmethyl)-5-((4-vinylbenzyl)oxy)-4H-pyran-4-one], the IC50 lay in the range of 301 to 2000 nM.

Take `CS(=O)(=O)N1CCC(COc2coc(CN3Cc4ccc(C(F)(F)F)cc4C3)cc2=O)CC1` [Compound 184, 5-((1-(Methylsulfonyl)piperidin-4-yl)methoxy)-2-((5-(trifluoromethyl)isoindolin-2-yl)methyl)-4H-pyran-4-one]: the 50% inhibitory concentration (IC50) was < 150 nM.

Regarding `CC(C)(O)c1ccc(COc2coc(CN3CCc4ccccc4C3)cc2=O)cc1` [Compound 44, 2-((3,4-dihydroisoquinolin-2(1H)-yl)methyl)-5-((4-(2-hydroxypropan-2-yl)-benzyl)oxy)-4H-pyran-4-one], the IC50 is < 150 nM.

Regarding `O=C(COc1coc(CN2Cc3ccccc3C2)cc1=O)N1CCN(S(=O)(=O)c2ccccc2)CC1` [Compound 156, 2-(Isoindolin-2-ylmethyl)-5-(2-oxo-2-(4-(phenylsulfonyl)piperazin-1-yl)ethoxy)-4H-pyran-4-one], the IC50 was 301 to 2000 nM.

With `Cc1ccc(S(=O)(=O)N=S2(=O)CCC(COc3coc(CN4Cc5ccccc5C4)cc3=O)CC2)cc1` (stereo not drawn) [Compound 194, N-(4-(((6-(Isoindolin-2-ylmethyl)-4-oxo-4H-pyran-3-yl)oxy)methyl)-1-oxido-tetrahydro-2H-thiopyran-1-ylidene)-4-methylbenzenesulfonamide], the concentration for half-maximal inhibition (IC50) lay in the range of 150 to 300 nM.

`CS(=O)(=O)N1CCC(COc2coc(CN3Cc4ccc(F)c(F)c4C3)cc2=O)CC1` [Compound 245, 2-((4,5-Difluoroisoindolin-2-yl)methyl)-5-((1-(methylsulfonyl)piperidin-4-yl)methoxy)-4H-pyran-4-one]: the IC50 fell in the range of 301 to 2000 nM.

In the case of `CCOC(=O)c1cnn(-c2ccc(COc3coc(CN4Cc5ccccc5C4)cc3=O)cc2)c1` [Compound 40, Ethyl 1-(4-(((6-(isoindolin-2-ylmethyl)-4-oxo-4H-pyran-3-yl)oxy)methyl)phenyl)-1H-pyrazole-4-carboxylate], the half-inhibitory concentration (IC50) fell in the range of 301 to 2000 nM.

Turning to `CC(C)(C)OC(=O)N1CCC[C@H](COc2coc(CN3Cc4ccccc4C3)cc2=O)C1` [Compound 201, (S)-tert-Butyl 3-(((6-(isoindolin-2-ylmethyl)-4-oxo-4H-pyran-3-yl)oxy)methyl)-piperidine-1-carboxylate], the half-inhibitory concentration (IC50) was in the range of 301 to 2000 nM.

Consider `O=c1cc(CN2Cc3ccccc3C2)occ1OCC1CCSCC1` [Compound 196, 2-(Isoindolin-2-ylmethyl)-5-((tetrahydro-2H-thiopyran-4-yl)methoxy)-4H-pyran-4-one], for which the 50% inhibitory concentration (IC50) is < 150 nM.

`O=c1cc(CN2Cc3ccccc3C2)occ1OCC1CCN(S(=O)(=O)c2ccc(F)cc2)CC1` [Compound 256, 5-((1-((4-Fluorophenyl)sulfonyl)piperidin-4-yl)methoxy)-2-(isoindolin-2-yl-methyl)-4H-pyran-4-one]: the IC50 lay in the range of 150 to 300 nM.

Take `CC(c1cc(=O)c(OCC2CCN(S(C)(=O)=O)CC2)co1)N1Cc2ccccc2C1` (stereo not drawn) [Compound 195]: the IC50 is < 150 nM.

Consider `Cc1ccc(COc2coc(CN3CCc4ccccc4C3)cc2=O)cc1` [Compound 42, 2-((3,4-Dihydroisoquinolin-2(1H)-yl)methyl)-5-((4-methylbenzyl)oxy)-4H-pyran-4-one], for which the IC50 was in the range of 301 to 2000 nM.

In the case of `CS(=O)(=O)N1[C@@H]2CC[C@H]1CC(COc1coc(CN3Cc4ccccc4C3)cc1=O)C2` (stereo partly drawn) [Compound 177, 2-(Isoindolin-2-ylmethyl)-5-(((1R,5S)-8-(methylsulfonyl)-8-azabicyclo[3.2.1]-octan-3-yl)methoxy)-4H-pyran-4-one], the concentration for half-maximal inhibition (IC50) was 150 to 300 nM.

As for `O=c1cc(CN2Cc3ccccc3C2)occ1OCc1ccc(C(F)(F)F)nc1` [Compound 75, 2-(Isoindolin-2-ylmethyl)-5-((6-(trifluoromethyl)pyridin-3-yl)methoxy)-4H-pyran-4-one], the IC50 lay in the range of 301 to 2000 nM.

In the case of `NC(=O)c1ccc(COc2coc(CN3Cc4ccccc4C3)cc2=O)c(F)c1` [Compound 56, 3-Fluoro-4-(((6-(isoindolin-2-ylmethyl)-4-oxo-4H-pyran-3-yl)oxy)methyl)-benzamide], the IC50 fell in the range of 150 to 300 nM.

With `CS(=O)(=O)N1CCC(COc2coc(CN3Cc4ccc(OC(F)(F)F)cc4C3)cc2=O)CC1` [Compound 205, 5-((1-(Methylsulfonyl)piperidin-4-yl)methoxy)-2-((5-(trifluoromethoxy)-isoindolin-2-yl)methyl)-4H-pyran-4-one], the IC50 was < 150 nM.

Regarding `CC(C)CC(=O)N[C@@H]1C=C[C@H](COc2coc(CN3Cc4ccccc4C3)cc2=O)C1` (relative stereo) [Compound 275, Cis-N-(4-(((6-(isoindolin-2-ylmethyl)-4-oxo-4H-pyran-3-yl)oxy)methyl)cyclo-pent-2-en-1-yl)-3-methylbutanamide, Formate], the IC50 was in the range of 301 to 2000 nM.

Consider `O=C(c1ccc(COc2coc(CN3Cc4ccc(Br)cc4C3)cc2=O)cc1)N1CCCC1` [Compound 130, 2-((5-Bromoisoindolin-2-yl)methyl)-5-((4-(pyrrolidine-1-carbonyl)benzyl)oxy)-4H-pyran-4-one], for which the IC50 is < 150 nM.

On to `O=c1cc(CN2Cc3ccccc3C2)occ1OCc1ccc(S(=O)(=O)NCCO)cc1` [Compound 15, N-(2-Hydroxyethyl)-4-(((6-(isoindolin-2-ylmethyl)-4-oxo-4H-pyran-3-yl)-oxy)methyl)benzenesulfonamide], for which the IC50 was < 150 nM.

As for `CS(=O)(=O)N1CCC(COc2coc(CN3Cc4ccc(F)cc4C3)cc2=O)CC1` [Compound 186, 2-((5-Fluoroisoindolin-2-yl)methyl)-5-((1-(methylsulfonyl)piperidin-4-yl)-methoxy)-4H-pyran-4-one], the IC50 was < 150 nM.

On to `CC1c2ccccc2CN1Cc1cc(=O)c(OCc2ccc(C(=O)N(C)C)cc2)co1` (stereo not drawn) [Compound 77, N,N-Dimethyl-4-(((6-((1-methylisoindolin-2-yl)methyl)-4-oxo-4H-pyran-3-yl)oxy)methyl)benzamide], for which the concentration for half-maximal inhibition (IC50) lay in the range of 301 to 2000 nM.

For `O=CN1CCC(COc2coc(CN3Cc4ccccc4C3)cc2=O)CC1` [Compound 284, 4-(((6-(Isoindolin-2-ylmethyl)-4-oxo-4H-pyran-3-yl)oxy)methyl)piperidine-1-carbaldehyde, HCl], the IC50 lay in the range of 150 to 300 nM.

For the compound `CN(C)C(=O)c1cc(F)c(COc2coc(CN3Cc4ccccc4C3)cc2=O)c(F)c1` [Compound 172, 3,5-Difluoro-4-(((6-(isoindolin-2-ylmethyl)-4-oxo-4H-pyran-3-yl)oxy)methyl)-N,N-dimethylbenzamide], the half-maximal inhibitory concentration (IC50) is < 150 nM.
